Assay results: patent US9561228B2 (Celgene Avilomics Research, Inc., priority 2013, dated 2017)
Where two headings read alike, the source gives them in different places.

How the values were obtained:
MEK1 activated ERK1 = target: T1, MEK1 activated ERK1 (Homo sapiens, UniProt P27361); assay: Omnia continuous-read kinase assay for potency against MEK1 activated ERK1; type: biochemical
T1 construct: purchased Millipore (Billerica, Mass.) 14-439-K
Outline: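 Apparent IC50 came from initial reaction slopes (RFU vs time) plotted against log inhibitor with a variable-slope fit. Reactions were started with ERK1 (4 nM final) added to 50 μM ATP, roughly at its appKM, and 10 μM Sox-conjugated ST17 peptide in 20 mM Tris pH 7.5, 5 mM MgCl2. Fluorescence was monitored every 71 seconds.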

[1] = tested on: ERK1/2 phosphorylation of p90RSK in HCT116 cells; assay: Detection of total and phospho-RSK by MSD ELISA (HCT116); type: cell-based; details: Homo sapiens, HCT-116, read-out: ERK1/ERK2 PRSK HCT116 EC50
Outline: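 ERK1/2 activity read in cells as p90RSK phosphorylation: lysates from HCT116 cells given compound for 2 h at 37° C were captured on MSD plates. Detection used a pSer380 RSK or a total RSK antibody with SulfoTag secondaries.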

Erk1 = target: T2, Erk1 (Homo sapiens, UniProt P27361); assay: Protein Mass Modification Assay (intact protein MALDI, 60 min, 10-fold excess of compound); type: binding
T2 construct: purchased Millipore 14-439
Outline: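 Percent covalent modification comes from the intact-protein MALDI centroid mass shift, treated versus control, divided by compound MW. Before analysis, human Erk1 was exposed to compound at 10-fold excess over protein for 60 min at room temperature.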

[2] = MEK1 activated ERK1, ATP at KM, read-out: ERK1 Omnia WT ATP KM IC50

T2 sequence (P27361 whole entry): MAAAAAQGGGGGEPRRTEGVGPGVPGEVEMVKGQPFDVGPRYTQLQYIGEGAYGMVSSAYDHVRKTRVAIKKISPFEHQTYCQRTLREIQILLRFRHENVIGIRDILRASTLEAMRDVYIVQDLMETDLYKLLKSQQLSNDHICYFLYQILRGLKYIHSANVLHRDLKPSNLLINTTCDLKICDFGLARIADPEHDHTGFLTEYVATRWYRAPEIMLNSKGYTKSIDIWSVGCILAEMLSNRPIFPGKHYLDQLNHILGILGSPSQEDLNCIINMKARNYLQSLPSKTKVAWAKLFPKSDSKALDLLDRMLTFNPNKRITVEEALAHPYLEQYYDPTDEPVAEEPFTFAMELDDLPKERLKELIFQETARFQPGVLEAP
T1 sequence (P27361 whole entry): as above

IC50 (MEK1 activated ERK1; ATP at KM, WT) [nM]	EC50 [1] [nM]	ERK1 Mass Mod (%) (Erk1)	Compound	IC50 (MEK1 activated ERK1; [2]) [nM]
101 to 500	101 to 500	E (a mass modification of ≧70%)	C=CC(=O)Nc1cc(C(=O)N2CCN(S(C)(=O)=O)CC2)ccc1Nc1nc(Nc2cc(OC)ncc2C)ncc1C(F)(F)F [Compound I-401, N-(2-((2-((2-methoxy-5-methylpyridin-4-yl)amino)-5-(trifluoromethyl)pyrimidin-4-yl)amino)-5-(4-(methylsulfonyl)piperazine-1-carbonyl)phenyl)acrylamide]	
101 to 500	501 to 999	E (a mass modification of ≧70%)	C=CC(=O)Nc1cc(C)ccc1Nc1nc(Nc2ccnc3ccccc23)ncc1C(F)(F)F [Compound I-379, N-(5-methyl-2-((2-(quinolin-4-ylamino)-5-(trifluoromethyl)pyrimidin-4-yl)amino)phenyl)acrylamide]	
101 to 500	501 to 999	E (a mass modification of ≧70%)	C=CC(=O)Nc1cc(C)ccc1Nc1nc(Nc2cc(OCC)ncc2C)ncc1C(F)(F)F [Compound I-358, N-(2-((2-((2-ethoxy-5-methylpyridin-4-yl)amino)-5-(trifluoromethyl)pyrimidin-4-yl)amino)-5-methylphenyl)acrylamide]	
101 to 500	101 to 500	E (a mass modification of ≧70%)	C=CC(=O)Nc1cc(C)ccc1Nc1nc(Nc2nc(OC)ncc2C(F)(F)F)ncc1C(F)(F)F [Compound I-355, N-(2-((2-((2-methoxy-5-(trifluoromethyl)pyrimidin-4-yl)amino)-5-(trifluoromethyl)pyrimidin-4-yl)amino)-5-methylphenyl)acrylamide]	
101 to 500	501 to 999	F (a mass modification of 31-69%)	C=CC(=O)Nc1cc(C)ccc1Nc1nc(Nc2cc(OC)ncc2Cl)ncc1C(F)(F)F [Compound I-351, N-(2-((2-((5-chloro-2-methoxypyridin-4-yl)amino)-5-(trifluoromethyl)pyrimidin-4-yl)amino)-5-methylphenyl)acrylamide]	
< 100	< 100	E (a mass modification of ≧70%)	C=CC(=O)Nc1cc(CN2CCN(C(=O)c3cccnc3)CC2)ccc1Nc1nc(Nc2cc(OC)ncc2C)ncc1C(F)(F)F [Compound I-389, N-(2-((2-((2-methoxy-5-methylpyridin-4-yl)amino)-5-(trifluoromethyl)pyrimidin-4-yl)amino)-5-((4-nicotinoylpiperazin-1-yl)methyl)phenyl)acrylamide]	
101 to 500	> 1000	E (a mass modification of ≧70%)	C=CC(=O)Nc1cc(CN2CCN(C(=O)c3cccnc3)CC2)ccc1Nc1nc(Nc2nc(OC)ncc2C)ncc1C(F)(F)F [Compound I-392, N-(2-((2-((2-methoxy-5-methylpyrimidin-4-yl)amino)-5-(trifluoromethyl)pyrimidin-4-yl)amino)-5-((4-nicotinoylpiperazin-1-yl)methyl)phenyl)acrylamide]	
> 1000	> 1000	F (a mass modification of 31-69%)	C=CC(=O)Nc1cc(C)c(C#N)cc1Nc1nc(NC2CCOCC2)ncc1C(F)(F)F [Compound I-397, N-(4-cyano-5-methyl-2-((2-((tetrahydro-2H-pyran-4-yl)amino)-5-(trifluoromethyl)pyrimidin-4-yl)amino)phenyl)acrylamide]	
101 to 500	501 to 999	E (a mass modification of ≧70%)	C=CC(=O)Nc1cc(CN2CCN(C(C)=O)CC2)ccc1Nc1nc(Nc2nc(OC)ncc2C)ncc1C(F)(F)F [Compound I-382, N-(5-((4-acetylpiperazin-1-yl)methyl)-2-((2-((2-methoxy-5-methylpyrimidin-4-yl)amino)-5-(trifluoromethyl)pyrimidin-4-yl)amino)phenyl)acrylamide]	
501 to 999	101 to 500	E (a mass modification of ≧70%)	C=CC(=O)Nc1cc(C)ccc1Nc1nc(Nc2nc(OC)ncc2C#N)ncc1C(F)(F)F [Compound I-346, N-(2-((2-((5-cyano-2-methoxypyrimidin-4-yl)amino)-5-(trifluoromethyl)pyrimidin-4-yl)amino)-5-methylphenyl)acrylamide]	
101 to 500	501 to 999	E (a mass modification of ≧70%)	C=CC(=O)Nc1cc(C)ccc1Nc1nc(Nc2cc(OCCOC)ncc2C)ncc1C(F)(F)F [Compound I-359, N-(2-((2-((2-(2-methoxyethoxy)-5-methylpyridin-4-yl)amino)-5-(trifluoromethyl)pyrimidin-4-yl)amino)-5-methylphenyl)acrylamide]	
101 to 500	> 1000	E (a mass modification of ≧70%)	C#CC(=O)Nc1cc(C)ccc1Nc1nc(Nc2cc(OC)ncc2C)ncc1C(F)(F)F [Compound I-345, N-(2-((2-((2-methoxy-5-methylpyridin-4-yl)amino)-5-(trifluoromethyl)pyrimidin-4-yl)amino)-5-methylphenyl)propiolamide]	
101 to 500	501 to 999	E (a mass modification of ≧70%)	C=CC(=O)Nc1c(Nc2nc(Nc3cc(OC)ncc3C)ncc2C(F)(F)F)ccc(C)c1F [Compound I-367, N-(2-fluoro-6-((2-((2-methoxy-5-methylpyridin-4-yl)amino)-5-(trifluoromethyl)pyrimidin-4-yl)amino)-3-methylphenyl)acrylamide]	
501 to 999	501 to 999	E (a mass modification of ≧70%)	C=CC(=O)Nc1cc(CN2CCN(C(=O)CO)CC2)ccc1Nc1nc(Nc2nc(OC)ncc2C)ncc1C(F)(F)F [Compound I-386, N-(5-((4-(2-hydroxyacetyl)piperazin-1-yl)methyl)-2-((2-((2-methoxy-5-methylpyrimidin-4-yl)amino)-5-(trifluoromethyl)pyrimidin-4-yl)amino)phenyl)acrylamide]	
< 100	< 100	E (a mass modification of ≧70%)	C=CC(=O)Nc1cc(CN2CCN(C(=O)c3cnccn3)CC2)ccc1Nc1nc(Nc2cc(OC)ncc2C)ncc1C(F)(F)F [Compound I-390, N-(2-((2-((2-methoxy-5-methylpyridin-4-yl)amino)-5-(trifluoromethyl)pyrimidin-4-yl)amino)-5-((4-(pyrazine-2-carbonyl)piperazin-1-yl)methyl)phenyl)acrylamide]	
< 100	< 100	E (a mass modification of ≧70%)	C=CC(=O)Nc1cc(C)c(F)cc1Nc1nc(Nc2nc(OC)ncc2Cl)ncc1C(F)(F)F [Compound I-374, N-(2-((2-((5-chloro-2-methoxypyrimidin-4-yl)amino)-5-(trifluoromethyl)pyrimidin-4-yl)amino)-4-fluoro-5-methylphenyl)acrylamide]	
101 to 500	> 1000	F (a mass modification of 31-69%)	C=CC(=O)Nc1cc(C)ccc1Nc1nc(Nc2nc(OC)nc(OC)n2)ncc1C(F)(F)F [Compound I-371, N-(2-((2-((4,6-dimethoxy-1,3,5-triazin-2-yl)amino)-5-(trifluoromethyl)pyrimidin-4-yl)amino)-5-methylphenyl)acrylamide]	
101 to 500	< 100	E (a mass modification of ≧70%)	C=CC(=O)Nc1cc(C)ccc1Nc1nc(Nc2cc(OCCO)ncc2C)ncc1C(F)(F)F [Compound I-376, N-(2-((2-((2-(2-hydroxyethoxy)-5-methylpyridin-4-yl)amino)-5-(trifluoromethyl)pyrimidin-4-yl)amino)-5-methylphenyl)acrylamide]	
501 to 999	101 to 500	F (a mass modification of 31-69%)	C=CC(=O)Nc1cc(C)ccc1Nc1nc(Nc2cc(OC)nnc2OC)ncc1C(F)(F)F [Compound I-372, N-(2-((2-((3,6-dimethoxypyridazin-4-yl)amino)-5-(trifluoromethyl)pyrimidin-4-yl)amino)-5-methylphenyl)acrylamide]	

Compound	IC50 (MEK1 activated ERK1; ATP at KM, WT) [nM]	EC50 [1] [nM]	ERK1 Mass Mod (%) (Erk1)	IC50 (MEK1 activated ERK1; [2]) [nM]
C=CC(=O)Nc1cc(C)ccc1Nc1nc(Nc2cc(NCCOC)nc(OC)c2)ncc1C(F)(F)F [Compound I-294, N-(2-((2-((2-methoxy-6-((2-methoxyethyl)amino)pyridin-4-yl)amino)-5-(trifluoromethyl)pyrimidin-4-yl)amino)-5-methylphenyl)acrylamide]		< 100	E (a mass modification of ≧70%)	101 to 500
C=CC(=O)Nc1cc(C)ccc1Nc1nc(Nc2cc(OC)nc(N3CCN(C(C)=O)CC3)c2)ncc1C(F)(F)F [Compound I-93, N-(2-((2-((2-(4-Acetylpiperazin-1-yl)-6-methoxypyridin-4-yl)amino)-5-(trifluoromethyl)pyrimidin-4-yl)amino)-5-methylphenyl)acrylamide]		< 100	E (key: E: a mass modification of ≧70%; F: a mass modification of 31-69%; G: a mass modification ≦30%)	101 to 500
C=CC(=O)Nc1ccccc1Nc1nc(Nc2cc(OC)nc(N3CCN(C(C)=O)CC3)c2)ncc1C(F)(F)F [Compound I-92]		< 100	E (a mass modification of ≧70%)	< 100
